Measurements taken from patent US6479435B1, “Diaryl ethers and processes for their preparation and herbicidal and desiccant compositions containing them” (ISK Americas Incorporated, priority 1997, dated 2002).

Assays:
Assay type in all cases: in vivo
[1] = test system: common ragweed (Ambrosia artemisiifolia L., AMBEL); experiment: Post-emerge greenhouse herbicide test, phytotoxicity rating; settings: 14 days after application, scale 0-100
Summary of the method: (§1)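 Plants at the 2-3 leaf stage, sown 8-21 days earlier, were track-sprayed post-emergence with compound in acetone plus 0.25% v/v non-ionic surfactant at 63-1000 g ai/ha (187 l/ha). Damage was rated at 14 days on a 0-100 scale (0 none, 100 all plants dead), for both crop injury and weed control.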

[2] = test system: ivyleaf morningglory (Ipomoea hederacea, IPOHE); experiment: as above; settings: 14 days after application, scale 0-100
Summary of the method: as §1

[3] = test system: green foxtail (Setaria viridis, SETVI); experiment: as above; settings: 14 days after application, scale 0-100
Summary of the method: as §1

[4] = test system: redroot pigweed (Amaranthus retroflexus, AMARE); experiment: as above; settings: 14 days after application, scale 0-100
Summary of the method: as §1

[5] = test system: lambsquarters (Chenopodium album, CHEAL); experiment: as above; settings: 14 days after application, scale 0-100
Summary of the method: as §1

[6] = test system: sicklepod (Cassia obtusifolia, CASOB); experiment: as above; settings: 14 days after application, scale 0-100
Summary of the method: as §1

[7] = test system: velvetleaf (Abutilon theophrasti, ABUTH); experiment: as above; settings: 14 days after application, scale 0-100
Summary of the method: as §1

[8] = test system: barnyardgrass (Echinochloa crusgalli, ECHCG); experiment: as above; settings: 14 days after application, scale 0-100
Summary of the method: as §1

[9] = test system: Johnsongrass (Sorghum halepense, SORHA); experiment: as above; settings: 14 days after application, scale 0-100
Summary of the method: as §1

[10] = test system: large crabgrass (Digitaria sanguinalis, DIGSA); experiment: as above; settings: 14 days after application, scale 0-100
Summary of the method: as §1

[11] = test system: soybean (Glycine max L., var. Pella 86, SOY); experiment: Pre-emerge greenhouse test, crop damage rating; parameters: key to SOY crop damage rating: 0 = no damage, 100 = complete death of all plants; settings: 14 days after application, rating scale 0-100
Summary of the method: (§2)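 Seeds sown in sandy loam one day before track-sprayer application of acetone solutions at 125–1000 g ai/ha (187 l/ha), then surface-watered to incorporate and bottom-watered. Injury scored visually at 14 days on a 0–100 scale (0 no damage, 100 complete death).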

[12] = test system: upland rice (Oryza sp., var.Tebonnet, RICE); experiment: Post-emerge greenhouse test, crop damage rating; settings: 14 days after application, scale 0-100
Summary of the method: as §1

[13] = test system: field corn (Zea mays L., var. Dekalb 535, CORN); experiment: Post-emerge greenhouse test, crop damage rating; settings: 14 days after application, scale 0-100
Summary of the method: as §1

[14] = test system: soybean (Glycine max L., var. Pella 86, SOY); experiment: Post-emerge greenhouse test, crop damage rating; parameters: key to crop damage rating SOY: 0-100 scale: 0 = no damage, 100 = complete death of all plants; settings: 14 days after application, scale 0-100
Summary of the method: as §1

[15] = test system: upland rice (Oryza sp., var.Tebonnet, RICE); experiment: Pre-emerge greenhouse test, crop damage rating; settings: 14 days after application, rating scale 0-100
Summary of the method: as §2

[16] = test system: field corn (Zea mays L., var. Dekalb 535, CORN); experiment: Pre-emerge greenhouse test, crop damage rating; settings: 14 days after application, rating scale 0-100
Summary of the method: as §2

[17] = test system: ivyleaf morningglory (Ipomoea hederacea, IPOHE); experiment: Pre-emerge greenhouse herbicide test, phytotoxicity rating; settings: 14 days after application, rating scale 0-100
Summary of the method: as §2

[18] = test system: green foxtail (Setaria viridis, SETVI); experiment: as above; settings: 14 days after application, rating scale 0-100
Summary of the method: as §2

[19] = test system: redroot pigweed (Amaranthus retroflexus, AMARE); experiment: as above; settings: 14 days after application, rating scale 0-100
Summary of the method: as §2

[20] = test system: lambsquarters (Chenopodium album, CHEAL); experiment: as above; settings: 14 days after application, rating scale 0-100
Summary of the method: as §2

[21] = test system: sicklepod (Cassia obtusifolia, CASOB); experiment: as above; settings: 14 days after application, rating scale 0-100
Summary of the method: as §2

[22] = test system: common ragweed (Ambrosia artemisiifolia L., AMBEL); experiment: as above; settings: 14 days after application, rating scale 0-100
Summary of the method: as §2

[23] = test system: velvetleaf (Abutilon theophrasti, ABUTH); experiment: as above; settings: 14 days after application, rating scale 0-100
Summary of the method: as §2

[24] = test system: barnyardgrass (Echinochloa crusgalli, ECHCG); experiment: as above; settings: 14 days after application, rating scale 0-100
Summary of the method: as §2

[25] = test system: Johnsongrass (Sorghum halepense, SORHA); experiment: as above; settings: 14 days after application, rating scale 0-100
Summary of the method: as §2

[26] = test system: large crabgrass (Digitaria sanguinalis, DIGSA); experiment: as above; settings: 14 days after application, rating scale 0-100
Summary of the method: as §2

SMILES: O=c1n(-c2cc(Oc3cccc(F)n3)c(Cl)cc2F)c(=S)n2n1CCCC2 [Compound 8-25]
- phytotoxicity rating AMBEL ([1]; rate 63 g ai/ha): 90
- phytotoxicity rating AMBEL ([1]; rate 500 g ai/ha): 90
- phytotoxicity rating IPOHE ([2]; rate 63 g ai/ha): 100
- phytotoxicity rating IPOHE ([2]; rate 500 g ai/ha): 100
- phytotoxicity rating SETVI ([3]; rate 63 g ai/ha): 80
- phytotoxicity rating SETVI ([3]; rate 500 g ai/ha): 95
- phytotoxicity rating AMARE ([4]; rate 63 g ai/ha): 100
- phytotoxicity rating AMARE ([4]; rate 500 g ai/ha): 100
- phytotoxicity rating CHEAL ([5]; rate 63 g ai/ha): 90
- phytotoxicity rating CHEAL ([5]; rate 500 g ai/ha): 100
- phytotoxicity rating CASOB ([6]; rate 63 g ai/ha): 70
- phytotoxicity rating CASOB ([6]; rate 500 g ai/ha): 100
- phytotoxicity rating ABUTH ([7]; rate 63 g ai/ha): 100
- phytotoxicity rating ABUTH ([7]; rate 500 g ai/ha): 100
- phytotoxicity rating ECHCG ([8]; rate 63 g ai/ha): 20
- phytotoxicity rating ECHCG ([8]; rate 500 g ai/ha): 65
- phytotoxicity rating SORHA ([9]; rate 63 g ai/ha): 40
- phytotoxicity rating SORHA ([9]; rate 500 g ai/ha): 60
- phytotoxicity rating DIGSA ([10]; rate 63 g ai/ha): 10
- phytotoxicity rating DIGSA ([10]; rate 500 g ai/ha): 40
- SOY crop damage rating ([11]; Rate 125 g al/ha): 0
- SOY crop damage rating ([11]; Rate 500 g al/ha): 20
- crop damage rating RICE ([12]; rate 63 g ai/ha): 10
- crop damage rating RICE ([12]; rate 500 g ai/ha): 60
- crop damage rating CORN ([13]; rate 63 g ai/ha): 10
- crop damage rating CORN ([13]; rate 500 g ai/ha): 25
- crop damage rating SOY ([14]; rate 63 g ai/ha): 70
- crop damage rating SOY ([14]; rate 500 g ai/ha): 90
- RICE crop damage rating ([15]; Rate 125 g al/ha): 15
- RICE crop damage rating ([15]; Rate 500 g al/ha): 70
- CORN crop damage rating ([16]; Rate 125 g al/ha): 0
- CORN crop damage rating ([16]; Rate 500 g al/ha): 40
- IPOHE phytotoxicity rating ([17]; Rate 125 g al/ha): 20
- IPOHE phytotoxicity rating ([17]; Rate 500 g al/ha): 20
- SETVI phytotoxicity rating ([18]; Rate 125 g al/ha): 100
- SETVI phytotoxicity rating ([18]; Rate 500 g al/ha): 100
- AMARE phytotoxicity rating ([19]; Rate 125 g al/ha): 100
- AMARE phytotoxicity rating ([19]; Rate 500 g al/ha): 100
- CHEAL phytotoxicity rating ([20]; Rate 125 g al/ha): 100
- CHEAL phytotoxicity rating ([20]; Rate 500 g al/ha): 100
- CASOB phytotoxicity rating ([21]; Rate 125 g al/ha): 70
- CASOB phytotoxicity rating ([21]; Rate 500 g al/ha): 100
- AMBEL phytotoxicity rating ([22]; Rate 125 g al/ha): 40
- AMBEL phytotoxicity rating ([22]; Rate 500 g al/ha): 90
- ABUTH phytotoxicity rating ([23]; Rate 125 g al/ha): 100
- ABUTH phytotoxicity rating ([23]; Rate 500 g al/ha): 100
- ECHCG phytotoxicity rating ([24]; Rate 125 g al/ha): 40
- ECHCG phytotoxicity rating ([24]; Rate 500 g al/ha): 100
- SORHA phytotoxicity rating ([25]; Rate 125 g al/ha): 70
- SORHA phytotoxicity rating ([25]; Rate 500 g al/ha): 90
- DIGSA phytotoxicity rating ([26]; Rate 125 g al/ha): 85
- DIGSA phytotoxicity rating ([26]; Rate 500 g al/ha): 100
